Data from patent publication US7671050B2, “Triazolophthalazines” (NYCOMED GmbH, priority 2005, dated 2010).

Legend:
[1] = test system: HUVEC monolayers; assay: Inhibition of thrombin-stimulated macromolecule (HRP) permeability of HUVEC monolayers; type: cell-based, human; settings: Homo sapiens, 1 h; HUVEC on Transwells, 1 μM RP73401, 10 μM Motapizone, 1 mM SNP or 100 nM ANP, 1 U/ml thrombin, HRP passage after 60 min; read-out: Inhibition of SNP- or ANP-induced permeability, -log IC50 (converted)
Method: The procedure to measure macromolecule permeability of endothelial cell monolayers followed the method described by Langeler & van Hinsbergh (1988) with modifications. Human umbilical vein endothelial cells were isolated from umbilical cords according to standard procedures (Jaffe et al. 1973) and cultured in endothelial cell basal medium (EBM) supplemented with 2% FCS, 0.5 ng/ml VEGF, 10 ng/ml bFGF, 5 ng/ml EGF, 20 ng/ml Long R3 IGF-1, 0.2 μg/ml hydrocortisone, 1 μg/ml ascorbic acid, 22.5 μg/ml heparin, 50 μg/ml gentamicin, 50 ng/ml amphotericin B (EGM2 purchased from Promocell GmbH, Heidelberg, Germany). At confluency, cells were trypsinized and replated at 73000 cells per well on 3 μm polycarbonate filter Transwell inserts (Costar GmbH, Bodenheim, Germany) precoated with 10 μg cm^2−1 Fibronectin (Sigma, Taufkirchen, Germany). HUVECs were cultured in EGM2 (100 μl in the upper wells and 600 μl in the lower wells) over four days prior the experiments and medium was changed every other day. At the day of the experiment culture medium was replaced by M199 with 1% human serum albumin. Endothelial cells were preincubated with cyclic nucleotide modifiers (the selective PDE3 inhibitor motapizone, the selective PDE4 inhibitor RP73401, the cGMP generators ANP or SNP and PDE2 inhibitors) for 15 min. HUVECs were then stimulated with Thrombin (1 U ml^−1) (Sigma, Taufkichen, Germany) and horsh radish peroxidase (5 μg/ml) (Sigma, Taufkirchen, Germany) as the macromolecule marker protein was added to the upper wells. Following 1 h incubation time Transwells were removed and the activity of horsh radish peroxidase that penetrated the endothelial cell monolayer was measured in the lower wells with the 3,3′,5,5′-tetramethylbenzidine liquid substrate system from Sigma (Taufkirchen, Germany).
In parallel, compounds according to the invention can inhibit Thrombin-induced permeability of HUVEC monolayers for horsh radish peroxidase (HRP) as a macromolecule marker. […] The concentration-dependent inhibition of HRP permeability at different concentrations was assessed from the percent inhibition in the presence and absence of the PDE2 inhibitors and in the presence of 1 μM RP73401, 10 μM Motapizone and 100 nM ANP.
HUVEC cells on 3 μm polycarbonate filters (Transwells) were preincubated with 1 μM RP73401 (to block PDE4) and 10 μM Motapizone (to block PDE3), 1 mM SNP or 100 nM ANP and test sample over 15 min and then stimulated with 1 U/ml thrombin. HRP passage into the lower wells was assessed after 60 min.

melting point [°C] | Compound | IC50 [1] [nM]
242.5 | CCOc1ccc(Nc2nn3c(-c4ccc(OC)cc4)nnc3c3ccccc23)cc1OCC [Example 29, (3,4-Diethoxyphenyl)-[3-(4-methoxyphenyl)-[1,2,4]triazolo[3,4-a]phthalazin-6-yl]-amine] | 7.94 to 316
294 | COc1ccc(-c2nnc3c4ccccc4c(Nc4ccc(OC(F)F)cc4)nn23)cc1 [Example 30, [4-(1,1-Difluoromethoxy)-phenyl]-[3-(4-methoxyphenyl)-[1,2,4]triazolo[3,4-a]phthalazin-6-yl]-amine] | 7.94 to 316
